{
  "source": "patent US20260345593A1",
  "about": "“ORAL FORMULATION OF N-PYRIDINYL ACETAMIDE DERIVATIVE FOR TREATING INTERSTITIAL LUNG DISEASE” (AstraZeneca AB, priority 2022, published 2026)",
  "key": {"[1]": {"assay": "Example 2, second clinical study: pharmacokinetics, bioavailability, food and rabeprazole effect", "type": "in vivo, human", "conditions": "for bioavailability: human, in vivo, po, 20 mg, 20 mg film-coated tablet, fasted, vs IV infusion", "protocol": "The study comprises a screening period of maximum 28 days, and five periods during which subjects will participate from Day −1 of Period 1 to 72 hours after the AZD5055 dose in Period 5.\nPeriod 1: On Day 1, the subjects will receive either 5 mg AZD5055 as a 20-minute IV infusion (Treatment A) in an overnight fasted state or AZD5055 20 mg as oral suspension (Treatment B) in an overnight fasted state.\nPeriod 2: On Day 1 (Study Day 4), the subjects will receive 20 mg AZD5055 film-coated tablet (Treatment C) in an overnight fasted state.\nPeriod 3: On Day 1 (Study Day 8) the subjects will receive a standardized high-fat breakfast 30 minutes before 20 mg AZD5055 administered as film-coated tablet (Treatment D).\nPeriod 4: On Study Day 10, three days prior to Day 1, 20 mg rabeprazole will be administered twice daily. On Day 1 (Study Day 13), 20 mg AZD5055 film-coated tablet will be administered together with rabeprazole and rabeprazole dosing will continue twice daily (Treatment E).\nPeriod 5: On Day 1 (Study Day 17) the participants will receive a low-fat breakfast 30 minutes before 20 mg AZD5055 film-coated tablet administered together with 20 mg rabeprazole.\nRabeprazole will continue twice daily, the last dose is on the evening of Study Day 18 (Treatment F).\nThere will be a minimum washout of 3 days between the AZD5055 dose administration in Period 1 and Period 2 and a minimum washout of 4 days between AZD5055 doses administrations for subsequent study periods. Repeated PK (pharmacokinetic) sampling will be performed pre-dose to 48 hours after dosing of AZD5055 of each period. Subjects will be discharged on Study Day 20 (Day 4 of Period 5), after all the samples have been collected and all the assessments have been performed.\nRabeprazole is administered as oral doses of 20 mg BID in the morning and evening. Pre-treatment with rabeprazole for 3 days is required to reach the PD (pharmacodynamic) steady state of pH elevation prior to administration of AZD5055.\nA high-fat, high-calorie breakfast constitutes the following: 2 eggs fried in butter; 2 strips of bacon; 2 slices of toast with butter; 112 g/4 oz of hash-brown potatoes; 240 mL/8 oz of whole milk.\nA low-fat, low-calorie breakfast constitutes the following: 1 boiled egg; 1 packet flavoured instant oatmeal made with water; 240 mL/8 oz milk (1% fat).\nPharmacokinetic Parameters—Pharmacokinetic parameters of AZD5055 included, but were not limited to, Cmax, AUCinf, and AUClast.\nApproximately 18 healthy participants were enrolled to ensure that at least 15 participants completed the 5-period study. It was expected that the proposed sample size would give adequate information on the effect of formulation and concomitant treatment on the exposure of AZD5055, while exposing as few participants as possible to study procedures. Interpretation of the results were based on the estimated geometric mean ratio (GMR) and the associated 90% confidence interval (CI) between the combination of test and reference for AUC and Cmax.\nPlasma concentrations were listed for each participant at each actual sampling time and summarized by treatment and nominal sampling time, using the same descriptive statistics as for the PK parameters. Graphical presentations included individual and geometric mean time-concentration curves (actual sampling time for individual curves and nominal sampling time for mean curves) on linear and semi-logarithmic scale. Pharmacokinetic variables and diagnostics of the PK analysis were listed, and PK variables were summarized by treatment using descriptive statistics (n, geometric mean, geometric coefficient of variation [gCV; %], arithmetic mean, arithmetic standard deviation [SD], minimum [min], median, and maximum [max]) for all variables except tmax, which were summarized using n, min, median, and max. […]"}, "[2]": {"test_system": "bleomycin-mediated fibrosis in the lungs of rats", "conditions": "cited from earlier work"}, "[3]": {"test_system": "renal fibrosis in a UUO model in mice", "conditions": "mice (Bunyard 2019); cited from earlier work"}, "[4]": {"conditions": "20 mg film-coated tablet vs oral suspension"}, "[5]": {"conditions": "tablet + rabeprazole fasted vs AZD5055 fasted alone"}, "[6]": {"conditions": "tablet + rabeprazole fed vs AZD5055 fasted alone"}, "[7]": {"conditions": "tablet with rabeprazole, fed vs fasted"}},
  "note": "Read-outs that look alike come from different tables or passages of the source.",
  "data": [
    {"smiles": "Cc1cc(-c2nccc3c2ccn3CC(=O)Nc2ccc(-c3cnccn3)cn2)ccn1", "note": "[AZD5055, 2-[4-(2-methyl-4-pyridyl)pyrrolo[3,2-c]pyridin-1-yl]-N-(5-pyrazin-2-yl-2-pyridyl)acetamide]", "values": [
      {"measurement": "reduction in Cmax, tablet vs oral suspension", "setting": "[1]; [4]", "value": "approximately 35%"},
      {"measurement": "total systemic exposure (AUCinf and AUClast), tablet vs oral suspension", "setting": "[1]; [4]", "value": "comparable"},
      {"measurement": "Cmax relative to IV dose", "setting": "[1]; film-coated tablet, percent of the IV dose", "value": "approximately 21%"},
      {"measurement": "bioavailability", "setting": "[1]; read-out: absolute bioavailability based on AUCinf", "value": "~66", "unit": "%"},
      {"measurement": "bioavailability", "setting": "[1]; read-out: absolute bioavailability based on AUClast", "value": "~64", "unit": "%"},
      {"measurement": "change in total systemic exposure (AUCinf and AUClast) with rabeprazole, fasted", "setting": "[1]; [5]", "value": "no change in total systemic exposure"},
      {"measurement": "reduction in Cmax with rabeprazole, fasted", "setting": "[1]; [5]", "value": 32, "unit": "%"},
      {"measurement": "change in total systemic exposure (AUCinf and AUClast) with rabeprazole, fed", "setting": "[1]; [6]", "value": "no change in total systemic exposure"},
      {"measurement": "reduction in Cmax with rabeprazole, fed", "setting": "[1]; [6]", "value": 20, "unit": "%"},
      {"measurement": "food effect on total systemic exposure with rabeprazole", "setting": "[1]; [7]", "value": "food did not impact total systemic exposure"},
      {"measurement": "increase in Cmax by food with rabeprazole", "setting": "[1]; [7]", "value": "approximately 17%"},
      {"measurement": "pulmonary fibrosis", "setting": "[2]; rat bleomycin in vivo study (Bunyard 2019)", "value": "reduced pulmonary fibrosis"},
      {"measurement": "bleomycin-mediated fibrosis in the lungs", "setting": "[2]; rats, preliminary studies (Bunyard 2019)", "value": "reduces bleomycin-mediated fibrosis in the lungs of rats"},
      {"measurement": "renal fibrosis, UUO model", "setting": "[3]", "value": "reduces"}
    ]}
  ]
}
